This note sets out measurements from BindingDB's records for patent US20240139197 (The Wistar Institute of Anatomy and Biology, 2024).

Common to all, as to experiment: Biochemical Assay
Test [1] has as its target Lysine-specific demethylase 5A (Homo sapiens, UniProt P29375).
The target of test [2] is Lysine-specific demethylase 5B (Homo sapiens, UniProt Q9UGL1).
Test [3] addresses T1, Lysine-specific demethylase 4C (Homo sapiens, UniProt Q9H3R0).
T1 sequence (Q9H3R0 whole entry): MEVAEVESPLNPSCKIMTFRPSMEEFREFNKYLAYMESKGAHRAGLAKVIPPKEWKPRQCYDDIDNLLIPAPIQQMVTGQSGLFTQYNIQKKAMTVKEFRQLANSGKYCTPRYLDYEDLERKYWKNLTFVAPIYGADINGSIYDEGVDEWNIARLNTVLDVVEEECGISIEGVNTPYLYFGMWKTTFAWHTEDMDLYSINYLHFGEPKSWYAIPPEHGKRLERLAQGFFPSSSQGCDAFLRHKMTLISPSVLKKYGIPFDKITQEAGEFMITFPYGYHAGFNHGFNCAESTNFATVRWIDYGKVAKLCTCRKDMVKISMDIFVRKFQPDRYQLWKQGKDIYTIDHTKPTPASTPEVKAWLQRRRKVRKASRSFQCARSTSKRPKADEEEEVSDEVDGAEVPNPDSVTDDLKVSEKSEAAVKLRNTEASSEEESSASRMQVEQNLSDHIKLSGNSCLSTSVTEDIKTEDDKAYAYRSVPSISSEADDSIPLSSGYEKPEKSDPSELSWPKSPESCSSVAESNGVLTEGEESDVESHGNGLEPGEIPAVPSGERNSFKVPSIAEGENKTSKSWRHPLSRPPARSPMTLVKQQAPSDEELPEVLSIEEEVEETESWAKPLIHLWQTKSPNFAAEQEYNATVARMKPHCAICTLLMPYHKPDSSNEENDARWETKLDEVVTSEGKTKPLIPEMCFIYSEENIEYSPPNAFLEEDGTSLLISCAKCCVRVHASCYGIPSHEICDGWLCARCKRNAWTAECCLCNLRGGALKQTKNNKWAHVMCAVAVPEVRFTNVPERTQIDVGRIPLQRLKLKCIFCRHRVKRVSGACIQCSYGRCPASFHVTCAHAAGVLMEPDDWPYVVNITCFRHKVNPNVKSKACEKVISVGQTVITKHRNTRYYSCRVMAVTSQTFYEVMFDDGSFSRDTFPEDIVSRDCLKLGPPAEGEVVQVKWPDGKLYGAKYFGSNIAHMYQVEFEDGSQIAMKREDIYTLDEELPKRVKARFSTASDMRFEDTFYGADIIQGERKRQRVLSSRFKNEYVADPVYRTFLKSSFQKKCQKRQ

Broadly, the IC50 is the concentration at which inhibition is half-maximal.

Lysine-specific demethylase 5A, sequence (P29375 whole entry): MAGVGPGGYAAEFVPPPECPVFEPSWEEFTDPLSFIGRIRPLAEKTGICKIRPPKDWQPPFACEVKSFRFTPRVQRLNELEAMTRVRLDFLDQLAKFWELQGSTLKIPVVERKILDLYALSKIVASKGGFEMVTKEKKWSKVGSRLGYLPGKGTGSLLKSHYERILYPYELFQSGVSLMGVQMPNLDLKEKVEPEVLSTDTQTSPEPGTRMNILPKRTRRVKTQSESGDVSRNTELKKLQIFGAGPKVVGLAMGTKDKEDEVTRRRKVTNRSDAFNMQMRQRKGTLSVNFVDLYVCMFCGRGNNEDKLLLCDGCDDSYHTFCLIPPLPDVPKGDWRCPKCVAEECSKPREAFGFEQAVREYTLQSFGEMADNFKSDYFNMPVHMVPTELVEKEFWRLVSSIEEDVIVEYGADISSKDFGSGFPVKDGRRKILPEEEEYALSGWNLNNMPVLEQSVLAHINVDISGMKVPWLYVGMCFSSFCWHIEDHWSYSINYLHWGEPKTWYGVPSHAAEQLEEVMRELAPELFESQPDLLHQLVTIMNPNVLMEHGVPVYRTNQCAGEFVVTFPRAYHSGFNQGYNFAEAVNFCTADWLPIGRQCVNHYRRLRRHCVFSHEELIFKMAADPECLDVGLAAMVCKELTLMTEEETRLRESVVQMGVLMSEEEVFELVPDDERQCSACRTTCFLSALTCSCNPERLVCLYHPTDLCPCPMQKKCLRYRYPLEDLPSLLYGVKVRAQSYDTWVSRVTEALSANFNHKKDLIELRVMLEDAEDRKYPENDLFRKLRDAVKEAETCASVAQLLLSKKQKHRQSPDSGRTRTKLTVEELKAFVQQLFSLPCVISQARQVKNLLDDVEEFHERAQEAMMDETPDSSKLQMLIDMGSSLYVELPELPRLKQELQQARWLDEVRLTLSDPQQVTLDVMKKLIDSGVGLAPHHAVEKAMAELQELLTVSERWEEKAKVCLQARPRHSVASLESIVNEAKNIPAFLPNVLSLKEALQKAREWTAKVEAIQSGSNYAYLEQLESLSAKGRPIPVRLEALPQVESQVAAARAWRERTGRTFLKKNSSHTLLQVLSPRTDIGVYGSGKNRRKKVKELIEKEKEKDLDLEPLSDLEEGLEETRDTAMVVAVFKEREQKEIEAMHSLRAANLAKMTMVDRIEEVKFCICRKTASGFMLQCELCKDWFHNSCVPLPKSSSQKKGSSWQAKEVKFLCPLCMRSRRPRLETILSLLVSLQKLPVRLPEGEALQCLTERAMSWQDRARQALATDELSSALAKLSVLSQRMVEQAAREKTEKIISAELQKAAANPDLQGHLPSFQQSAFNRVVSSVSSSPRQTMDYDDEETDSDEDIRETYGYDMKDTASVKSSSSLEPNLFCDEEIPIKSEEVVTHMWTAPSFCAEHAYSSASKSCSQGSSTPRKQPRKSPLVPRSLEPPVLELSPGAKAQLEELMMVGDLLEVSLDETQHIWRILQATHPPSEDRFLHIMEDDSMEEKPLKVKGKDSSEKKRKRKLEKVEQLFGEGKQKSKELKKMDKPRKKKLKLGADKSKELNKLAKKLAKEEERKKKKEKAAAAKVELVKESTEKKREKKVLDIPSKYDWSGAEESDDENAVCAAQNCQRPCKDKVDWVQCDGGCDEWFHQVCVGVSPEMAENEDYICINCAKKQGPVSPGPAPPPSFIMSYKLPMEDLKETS
Lysine-specific demethylase 5B, sequence (Q9UGL1 whole entry): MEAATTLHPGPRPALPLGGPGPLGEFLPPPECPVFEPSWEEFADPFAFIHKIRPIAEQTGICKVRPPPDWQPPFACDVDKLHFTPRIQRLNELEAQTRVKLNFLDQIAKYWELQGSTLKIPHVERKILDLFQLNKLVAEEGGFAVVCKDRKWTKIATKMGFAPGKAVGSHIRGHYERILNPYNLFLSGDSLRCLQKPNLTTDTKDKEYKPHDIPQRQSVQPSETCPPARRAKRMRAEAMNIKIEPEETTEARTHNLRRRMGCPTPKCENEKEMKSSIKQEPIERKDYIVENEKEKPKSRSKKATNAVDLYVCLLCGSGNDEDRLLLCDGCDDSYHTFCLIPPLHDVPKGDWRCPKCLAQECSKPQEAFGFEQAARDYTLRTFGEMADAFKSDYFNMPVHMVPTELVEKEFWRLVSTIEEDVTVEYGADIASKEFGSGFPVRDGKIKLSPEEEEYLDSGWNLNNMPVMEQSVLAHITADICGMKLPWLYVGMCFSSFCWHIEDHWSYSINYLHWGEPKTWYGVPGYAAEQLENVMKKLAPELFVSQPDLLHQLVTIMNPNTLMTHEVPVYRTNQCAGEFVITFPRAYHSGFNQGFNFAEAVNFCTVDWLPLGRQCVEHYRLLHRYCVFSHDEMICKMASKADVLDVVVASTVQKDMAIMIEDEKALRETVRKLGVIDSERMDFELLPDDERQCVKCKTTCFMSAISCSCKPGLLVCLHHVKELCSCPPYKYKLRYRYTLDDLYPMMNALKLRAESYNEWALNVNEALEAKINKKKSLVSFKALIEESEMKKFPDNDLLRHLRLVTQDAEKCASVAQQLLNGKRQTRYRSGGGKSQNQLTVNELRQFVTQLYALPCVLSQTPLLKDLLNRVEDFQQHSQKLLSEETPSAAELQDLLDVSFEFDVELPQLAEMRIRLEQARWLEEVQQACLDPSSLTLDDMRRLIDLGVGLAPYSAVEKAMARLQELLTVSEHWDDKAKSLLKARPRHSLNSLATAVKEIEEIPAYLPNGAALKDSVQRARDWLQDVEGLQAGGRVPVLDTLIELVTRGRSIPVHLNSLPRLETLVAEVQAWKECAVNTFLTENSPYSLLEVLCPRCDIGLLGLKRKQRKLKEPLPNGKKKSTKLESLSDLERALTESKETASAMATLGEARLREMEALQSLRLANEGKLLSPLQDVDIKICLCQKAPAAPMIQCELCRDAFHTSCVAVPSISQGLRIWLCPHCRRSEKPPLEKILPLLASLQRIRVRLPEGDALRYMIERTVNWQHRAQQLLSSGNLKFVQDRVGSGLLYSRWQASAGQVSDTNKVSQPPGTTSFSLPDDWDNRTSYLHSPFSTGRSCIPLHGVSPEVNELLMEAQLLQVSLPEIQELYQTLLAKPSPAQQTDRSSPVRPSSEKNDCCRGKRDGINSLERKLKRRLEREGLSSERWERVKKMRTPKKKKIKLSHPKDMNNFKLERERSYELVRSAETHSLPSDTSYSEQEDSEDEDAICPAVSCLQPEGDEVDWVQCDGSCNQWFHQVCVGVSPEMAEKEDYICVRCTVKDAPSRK

As to `CC(C)c1c[nH]c2c(C#N)cnn2c1=O` [US20240139197, Compound 7], the IC50 in test [1] came out at 170 nM. Regarding `Bc1cc(Cl)ccc1COc1ccnn1-c1cc(C(=O)O)ccn1` [US20240139197, Compound 21], the IC50 in test [2] is 4 nM; in test [3], 54 nM; in test [1], 14 nM. In turn, `COc1cc(Cl)ccc1COc1ccnn1-c1cc(C(=O)O)ccn1` [US20240139197, Compound 34] had an IC50 in test [2] of 3 nM. Consider `CCOc1cc(Cl)ccc1COc1ccnn1-c1cc(C(=O)O)ccn1` [US20240139197, Compound 35], for which the IC50 in test [1] was 18 nM. For `O=C(O)c1ccnc(-n2nccc2OCc2ccc(Cl)cc2OCC2CC2)c1` [US20240139197, Compound 36], the results for the IC50 in test [2] and in test [1] were 36 nM and 25 nM, respectively.
